In patent publication US20220233468A1 (priority 2021, published 2022):
Entries after “also recorded” stand apart in the source; their conditions may differ. Read-outs that look alike come from different tables or passages of the source.

Key:
[1] = tested on: SARS-CoV-2 S pseudovirions; assay: microbe, parasite or virus in culture; type: cell-based; settings: Severe acute respiratory syndrome coronavirus 2
TMPRSS2 = TMPRSS2 protein expression in cell lines by Western blotting; type: cell-based, human; mouse; settings: a-tubulin internal control, A549, H1299, CL1-5, Beas-2B, TC-1, MLE-12 cell lines, 18 to 24 hrs treatment
Experimental: The effects of Compound A and Compound B on TMPRSS2 were investigated in A549 (human alveolar epithelial cell), H1299 (human non-small cell lung carcinoma cell), CL1-5 (human lung adenocarcinoma cell), Beas-2B (human normal bronchial epithelial cell), TC-1 (mouse lung epithelial cell) and MLE-12 (mouse lung epithelial cell) cell lines. The expression of TMPRSS2 in cells was analyzed by Western blotting, and a-tubulin was used as an internal control.

[2] = read-out: EC50, inhibition of cellular entry of SARS-CoV-2 S pseudovirions

| Compound | EC50 [1, 2] [µM] | protein expression of TMPRSS2 (TMPRSS2) | EC50 ([1]; read-out: EC50, prophylactic inhibition of cellular entry of pseudovirions, wild-type Spike) [µM] |
| --- | --- | --- | --- |
| COc1ccc(/C=C/C(=O)C(F)(CC2CCC2)C(=O)/C=C/c2ccc(OC)c(OC)c2)cc1OC [Compound A, 4-fluoro-4-cyclobutylmethyl-1,7-bis(3,4-dimethoxyphenyl)hepta-1,6-diene-3,5-dione] | ~5.3 | inhibit the protein expression of TMPRSS2 |  |
| COc1ccc(/C=C/C(=O)C(CC2CCC2)C(=O)/C=C/c2ccc(OC)c(OC)c2)cc1OC [Compound B, 4-(cyclobutylmethyl)-1,7-bis(3,4-dimethoxyphenyl)hepta-1,6-diene-3,5-dione] | ~4.6 | inhibit the protein expression of TMPRSS2; also recorded: greater TMPRSS2 inhibitory activity as compared to Compound A | ~3.5 |
